Entries after “also recorded” stand apart in the source; their conditions may differ. Where two headings read alike, the source gives them in different places.
Tested on: LdtMt2 constructs with single amino acid mutations (Tyr318, His336, His352 and Cys354)
Assay type: binding, M. tuberculosis

For `C[C@@H](O)[C@H]1C(=O)N2C(C(=O)[O-])=C(SC3Cn4cnc[n+]4C3)[C@H](C)[C@H]12` (some centres unmarked) [biapenem], the “adduct formation with mutants” value (UPLC-MS, any of the mutant proteins) was “no adducts could be detected”.

`C[C@@H](O)[C@H]1C(=O)N2C(C(=O)O)=C([C@H]3CCCO3)S[C@H]12` [faropenem] was tested, and the “ITC binding to mutants” value was “loss of binding” and the “adduct formation with mutants” value was “failed to produce adducts; also recorded: did produce stable adducts”.

In the case of `C[C@@H](O)[C@H]1C(=O)N2C(C(=O)O)=C(SC3CN(C4=NCCS4)C3)[C@H](C)[C@H]12` [tebipenem], the “ITC binding to mutants” value is reported as “loss of binding” and the “adduct formation with mutants” value is reported as “failed to produce adducts; also recorded: did produce stable adducts”.

Reference: patent publication US11084833B2, “Antibacterial agents against D,D- and L,D-transpeptidases” (priority 2016, dated 2021)
